# Data taken from DBAASP.
# How the values were obtained:
# Assay in all cases: ≥ marks a high value that may be exact or a test limit, other limits are often not marked, values filed in µg/mL are converted to µM
# Acinetobacter baumannii = test system: Acinetobacter baumannii
# [1] = test system: Candida albicans ATCC 90028
# [2] = test system: Cutibacterium acnes ATCC 11828
# [3] = test system: Cutibacterium acnes ATCC 15725
# [4] = test system: Cutibacterium acnes ATCC 18380
# [5] = test system: Cutibacterium acnes ATCC 29903
# [6] = test system: Cutibacterium acnes ATCC 31766
# [7] = test system: Cutibacterium acnes ATCC 32548
# [8] = test system: Cutibacterium acnes ATCC 33257
# [9] = test system: Cutibacterium acnes ATCC 50247
# [10] = test system: Escherichia coli ATCC 25726
# [11] = test system: Staphylococcus aureus ATCC 25923
# [12] = test system: Bacillus cereus ATCC 11778
# [13] = test system: Escherichia coli ATCC 25922
# [14] = test system: Listeria monocytogenes ATCC BAA-751
# [15] = test system: Pseudomonas aeruginosa ATCC 9027
# [16] = test system: Salmonella enterica subsp. enterica serovar Typhimurium ATCC 14028
# [17] = test system: Staphylococcus aureus ATCC 29213
# [18] = test system: Staphylococcus aureus ATCC 43300
# [19] = test system: Bacillus subtilis ATCC 6633
# [20] = test system: Candida albicans ATCC 36232
# [21] = test system: Corynebacterium diphtheriae ATCC 8024
# [22] = test system: Escherichia coli ATCC 2592
# [23] = test system: Micrococcus luteus ATCC 9341
# [24] = test system: Shigella flexneri ATCC 203
# [25] = test system: Staphylococcus aureus ATCC 6538
# Staphylococcus aureus = test system: Staphylococcus aureus
# [26] = test system: Staphylococcus epidermidis ATCC 12228
# Enterococcus faecium = test system: Enterococcus faecium
# [27] = test system: Escherichia coli O18:K1:H7 Bort
# [28] = test system: Pseudomonas aeruginosa ATCC 27853
# Serratia marcescens = test system: Serratia marcescens
# Streptococcus agalactiae = test system: Streptococcus agalactiae
# Enterococcus faecalis = test system: Enterococcus faecalis
# Escherichia coli W3110 = test system: Escherichia coli W3110
# [29] = test system: Pseudomonas aeruginosa PAK
# [30] = test system: Streptococcus mutans UA159
# [31] = test system: Streptococcus sanguinis NY101
# [32] = test system: Streptococcus sobrinus ATCC 33478
# [33] = test system: Candida albicans ATCC 2002
# [34] = test system: Pseudomonas fluorescens ATCC 13525
# [35] = test system: Staphylococcus aureus ATCC 2592
structure (smiles),measurement,setting,value
CC[C@H](C)[C@H](NC(=O)[C@H](CCCCN)NC(=O)[C@H](CC(C)C)NC(=O)[C@H](CC(C)C)NC(=O)[C@@H]1CCCN1C(=O)[C@H](CCCCN)NC(=O)[C@H](CC(C)C)NC(=O)[C@H](CC(C)C)NC(=O)CN)C(=O)N[C@@H](C)C(=O)N[C@@H](C)C(=O)N[C@@H](CCCCN)C(=O)N[C@H](C(=O)NCC(=O)N[C@@H](CO)C(=O)N[C@@H](CC(N)=O)C(=O)N[C@@H](CC(C)C)C(=O)N[C@@H](CC(C)C)C(N)=O)C(C)C [GLLKPLLKIAAKVGSNLL],MIC,Acinetobacter baumannii,2.23 µM
same,MIC,[1],25 µM
same,MIC,[2],3 µM
same,MIC,[3],6 µM
same,MIC,[4],25 µM
same,MIC,[5],25 µM
same,MIC,[6],12.5 µM
same,MIC,[7],6 µM
same,MIC,[8],6 µM
same,MIC,[9],12.5 µM
same,MIC,[10],12.5 µM
same,MIC,[11],6 µM
CC[C@H](C)[C@H](NC(=O)CNC(=O)[C@H](CCCCN)NC(=O)[C@@H](NC(=O)[C@H](CC(C)C)NC(=O)[C@H](CO)NC(=O)CNC(=O)[C@H](CC(C)C)NC(=O)CNC(=O)[C@H](C)NC(=O)[C@H](CCCCN)NC(=O)[C@H](Cc1ccccc1)NC(=O)[C@@H](NC(=O)[C@H](CCC(=O)O)NC(=O)[C@H](CCCCN)NC(=O)[C@H](CC(C)C)NC(=O)CN)[C@@H](C)CC)C(C)C)C(=O)N[C@@H](C)C(=O)N[C@@H](C)C(=O)N[C@@H](Cc1cnc[nH]1)C(=O)N[C@H](C(=O)N[C@@H](C)C(=O)N[C@@H](CO)C(=O)O)C(C)C [GLKEIFKAGLGSLVKGIAAHVAS],MIC,[12],≥ 250 µM
same,MIC,[13],15.2 µM
same,MIC,[14],≥ 125 µM
same,MIC,[15],31.3 µM
same,MIC,[16],62.5 µM
same,MIC,[11],250 µM
same,MIC,[17],> 250 µM
same,MIC,[18],> 250 µM
CC[C@H](C)[C@H](NC(=O)[C@H](CC(=O)O)NC(=O)[C@H](CS)NC(=O)[C@@H](NC(=O)[C@@H](N)C(C)C)[C@@H](C)O)C(=O)N[C@@H](CC(C)C)C(=O)N[C@@H](CO)C(=O)N[C@H](C(=O)N[C@@H](CCC(=O)O)C(=O)N[C@@H](C)C(=O)N[C@@H](CCCCN)C(=O)NCC(=O)N[C@H](C(=O)N[C@@H](CCCCN)C(=O)N[C@@H](CC(C)C)C(N)=O)C(C)C)C(C)C [VTCDILSVEAKGVKL],MIC,[19],≥ 63.5 µM
same,MIC,[20],≥ 63.5 µM
same,MIC,[21],≥ 63.5 µM
same,MIC,[22],≥ 63.5 µM
same,MIC,[23],≥ 63.5 µM
same,MIC,[15],> 63.5 µM
same,MIC,[24],≥ 63.5 µM
same,MIC,[25],> 63.5 µM
same,MIC,Staphylococcus aureus,> 63.5 µM
same,MIC,[26],> 63.5 µM
CC[C@H](C)[C@H](N)C(=O)N[C@@H](CC(C)C)C(=O)N[C@@H](CCCN=C(N)N)C(=O)N[C@@H](C)C(=O)N[C@@H](Cc1c[nH]c2ccccc12)C(=O)N[C@@H](CCCCN)C(=O)N[C@@H](CCCCN)C(=O)N[C@@H](Cc1ccc(O)cc1)C(=O)NCC(=O)N1CCC[C@H]1C(=O)N[C@H](C(=O)N[C@H](C(=O)N[C@H](C(=O)N1CCC[C@H]1C(=O)N[C@H](C(=O)N[C@H](C(=O)N[C@@H](CCCN=C(N)N)C(=O)N[C@H](C(N)=O)[C@@H](C)CC)[C@@H](C)CC)[C@@H](C)CC)C(C)C)[C@@H](C)CC)[C@@H](C)CC [ILRAWKKYGPIIVPIIRI],MIC,Enterococcus faecium,8 µM
same,MIC,[27],2 µM
same,MIC,[28],8 µM
same,MIC,Serratia marcescens,16 µM
same,MIC,Staphylococcus aureus,8 µM
same,MIC,Streptococcus agalactiae,4 µM
CC[C@H](C)[C@H](NC(=O)[C@H](Cc1ccccc1)NC(=O)[C@H](Cc1cnc[nH]1)NC(=O)[C@H](CCCCN)NC(=O)[C@@H](NC(=O)[C@H](Cc1ccccc1)NC(=O)[C@@H]1CCCN1C(=O)[C@H](CO)NC(=O)[C@@H]1CCCN1C(=O)[C@H](CO)NC(=O)[C@@H]1CCCN1C(=O)[C@H](Cc1ccccc1)NC(=O)[C@H](Cc1cnc[nH]1)NC(=O)[C@H](CC(C)C)NC(=O)[C@H](Cc1cnc[nH]1)NC(=O)[C@H](Cc1ccccc1)NC(=O)[C@H](Cc1cnc[nH]1)NC(=O)[C@@H](N)Cc1ccccc1)[C@@H](C)CC)C(=O)N[C@@H](Cc1cnc[nH]1)C(=O)N[C@@H](CCCN=C(N)N)C(=O)N[C@@H](Cc1ccccc1)C(N)=O [FHFHLHFPSPSPFIKHFIHRF],MIC,Enterococcus faecalis,≥ 93.4 µM
same,MIC,Escherichia coli W3110,23.4 µM
same,MIC,[29],≥ 46.7 µM
same,MIC,Staphylococcus aureus,> 187 µM
same,MIC,[30],12 µM
same,MIC,[31],≥ 46.7 µM
same,MIC,[32],≥ 46.7 µM
CC[C@H](C)[C@H](NC(=O)[C@H](C)NC(=O)[C@@H](NC(=O)[C@@H]1CCCN1C(=O)[C@H](CC(C)C)NC(=O)[C@@H](NC(=O)[C@H](CC(N)=O)NC(=O)[C@H](C)NC(=O)[C@H](C)NC(=O)[C@@H](NC(=O)[C@H](CCCCN)NC(=O)[C@H](CC(C)C)NC(=O)[C@H](C)NC(=O)[C@@H](NC(=O)CNC(=O)[C@H](Cc1ccccc1)NC(=O)[C@@H](N)Cc1ccccc1)[C@@H](C)O)[C@@H](C)CC)C(C)C)[C@@H](C)O)C(=O)N[C@H]1CSSC[C@@H](C(=O)O)NC(=O)[C@H](CCCCN)NC(=O)[C@H](CCCCN)NC(=O)[C@H](CC(C)C)NC(=O)[C@H]([C@@H](C)CC)NC(=O)[C@H](CCCCN)NC1=O [FFGTALKIAANVLPTAICKILKKC],MIC,[19],2.34 µM
same,MIC,[33],19.5 µM
same,MIC,[34],31.2 µM
same,MIC,[35],3.9 µM
